Test results published in patent publication US12329158B2, “Large-scale methods of uniformly coating packaging surfaces with a volatile antimicrobial to preserve food freshness” (AGROFRESH INC., priority 2013, dated 2025).
Read-outs that look alike come from different tables or passages of the source.

Assays:
Epidermophyton floccus = assay: In vitro volatile assay (Example 26); type: cell-based; conditions: Epidermophyton, 120 h, 5 days at 28 C, 100% control, read-out: MIC (mg/L) Epidermophyton floccus
Description: (§1) Volatile assay: 6-well (16.5 mL volume per well) microtiter plates are used in an in vitro inhibition assay for Compounds A and 31, and compared to other registered fungicides (5-fluorocytosine, Amphotericin B, aspofungin diacetate, Fluconazole and Itraconazole). A 7.5-mL volume of half strength PDA is added to each well. After drying, a mycelial plug (5 mm diameter) is aseptically obtained from actively growing cultures of Epidermophyton floccus, Trichophyton rubrum, or Trichophyton mentagrophytes and placed at the center of the plate with the mycelial side in contact with the agar. A Whatman #1 filter disk (Cat. No. 1001-325) is placed, in duplicate, on the underside of a polyethylene PCR plate sealing film. […] The headspace around the inoculum is then sealed inside the well by the film with the adhering disk containing the fungicide and incubated inverted for 5 days at 28° C.

Trichophyton rubrum = assay: In vitro volatile assay (Example 26); type: cell-based; conditions: Trichophyton rubrum, 120 h, 5 days at 28 C, 100% control, read-out: MIC (mg/L) Trichophyton rubrum
Description: as §1

[1] = tested on: Trichophyton mentagrophytes; assay: In vitro volatile assay (Example 26); type: cell-based; conditions: Trichophyton mentagrophytes, 120 h, 5 days at 28 C, 100% control, read-out: MIC (mg/L) Trichophyton mentagrophytes
Description: as §1

C. albicans = assay: In vitro volatile assay, yeast infection species (Example 27); type: cell-based; conditions: Candida albicans
Description: More specifically, growth inhibition of yeast infection fungal species C. albicans and C. krusei (or I. orientalis) by volatile treatment of Compound 10 was assessed via a volatile assay.
as §1, with “Compound 10 (i.e., Compound A).” for “Compounds A and 31, and compared to other registered fungicides (5-fluorocytosine, Amphotericin B, aspofungin diacetate, Fluconazole and Itraconazole).”, “C. albicans and C. krusei (or I. orientalis)” for “Epidermophyton floccus, Trichophyton rubrum, or Trichophyton mentagrophytes”, “The acetone/methanol is permitted to evaporate for 5 minutes. The” for “The”

Botrytis cinerea = assay: Painting on base, lid or base and lid of clamshells; strawberries (Example 6); type: in vivo
Description: Five milligrams of Compound A was dissolved in 1 ml of ethanol prior to being uniformly administered to the interior of the clamshell by painting or spraying, and then dried for 5 minutes. After coating the clamshells with Compound A using various application techniques (i.e., sublimation, spraying, or painting), eight ethanol-washed strawberries were placed in the clamshell with stem end facing downwards. Each strawberry fruit was wounded using a T15 screwdriver tip to a uniform depth of eight mm (8 mm). […] Uninoculated strawberries were removed from their commercial package, and directly transferred into treated clamshells without any washing or inoculation steps.
Treated clamshells lids were closed, and then placed at 1° C. for an initial time period of 5 days. Clamshells were then removed from low temperature, and held for a second time period of 6 days at room temperature where the point of inoculation on the strawberry fruits was assessed for indication of disease incidence reported as a percentage (%). Severity of disease incidence was also reported.
This in vivo assay was used to evaluate the ability of Compound A to volatilize from different locations of a clamshell (i.e., the base and/or the lid of the clamshell) in order to control or inhibit fruit infection by pathogenic microorganism, Botrytis cinerea. This experiment was conducted exactly as described in Example 1, with a few exceptions. Compound A was administered to the clamshell by painting only. 5 mg of Compound A was painted onto the surface of the base of the clamshell or the lid of the clamshell (i.e., 5 mg/clamshell treatment rate). 2.5 mg of Compound A was painted onto the base and the lid of the clamshell (for a total of 5 mg/clamshell treatment rate). The clamshell was then permitted to dry for 5 minutes. Strawberries were inoculated with Botrytis cinerea, placed within the clamshell for an initial time period of 5 days, and assessed for disease incidence and severity over a second time period of 7 days as described in Example 1.

[2] = Inoculated Fruit, painted on Base and Lid, 2.5/2.5 mg, Day 0
[3] = Inoculated Fruit, painted on Base and Lid, 2.5/2.5 mg, Day 1
[4] = Inoculated Fruit, painted on Base and Lid, 2.5/2.5 mg, Day 2
[5] = Inoculated Fruit, painted on Base and Lid, 2.5/2.5 mg, Day 3
[6] = Inoculated Fruit, painted on Base and Lid, 2.5/2.5 mg, Day 4
[7] = Inoculated Fruit, painted on Base and Lid, 2.5/2.5 mg, Day 5
[8] = Inoculated Fruit, painted on Base and Lid, 2.5/2.5 mg, Day 6
[9] = Inoculated Fruit, painted on Base and Lid, 2.5/2.5 mg, Day 7
[10] = Inoculated Fruit, painted on Base, 5 mg, Day 7
[11] = Uninoculated Fruit, painted on Base, 5 mg, Day 0
[12] = Uninoculated Fruit, painted on Base, 5 mg, Day 1
[13] = Uninoculated Fruit, painted on Base, 5 mg, Day 2
[14] = Uninoculated Fruit, painted on Base, 5 mg, Day 3
[15] = Uninoculated Fruit, painted on Base, 5 mg, Day 4

OB1OCc2cc(F)ccc21 [Compound A, 5-fluoro-1,3-dihydro-1-hydroxy-2,1-benzoxaborole]
1.6%: inhibition at 0.035 µg/mL (C. albicans; 0.035 mg/L, read-out: Growth Inhibition (%) C. albicans)
40.2%: inhibition at […] (C. albicans; 1.1 mg/L, read-out: Growth Inhibition (%) C. albicans)
2.5: Gray Mold Severity (0-4) (Botrytis cinerea; Uninoculated Fruit, painted on Lid, 5 mg, Day 7)
100%: inhibition at […] (C. albicans; 2.2 mg/L, read-out: Growth Inhibition (%) C. albicans) | inhibition at […] (C. albicans; 4.5 mg/L, read-out: Growth Inhibition (%) C. albicans) | inhibition at […] (C. albicans; 8.9 mg/L, read-out: Growth Inhibition (%) C. albicans)
1.5: Gray Mold Severity (0-4) (Botrytis cinerea; Uninoculated Fruit, painted on Base and Lid, 2.5/2.5 mg, Day 5) | Gray Mold Severity (0-4) (Botrytis cinerea; Uninoculated Fruit, painted on Base and Lid, 2.5/2.5 mg, Day 6) | Gray Mold Severity (0-4) (Botrytis cinerea; Uninoculated Fruit, painted on Base and Lid, 2.5/2.5 mg, Day 7) | Gray Mold Severity (0-4) (Botrytis cinerea; Uninoculated Fruit, painted on Base, 5 mg, Day 7)
0.0%: Gray Mold Incidence (%) (Botrytis cinerea; [2]) | Gray Mold Incidence (%) (Botrytis cinerea; [3]) | Gray Mold Incidence (%) (Botrytis cinerea; [4]) | Gray Mold Incidence (%) (Botrytis cinerea; [5]) | Gray Mold Incidence (%) (Botrytis cinerea; [6]) | Gray Mold Incidence (%) (Botrytis cinerea; [7]) | Gray Mold Incidence (%) (Botrytis cinerea; [8]) | Gray Mold Incidence (%) (Botrytis cinerea; [9]) | Gray Mold Incidence (%) (Botrytis cinerea; [11]) | Gray Mold Incidence (%) (Botrytis cinerea; [12]) | Gray Mold Incidence (%) (Botrytis cinerea; [13]) | Gray Mold Incidence (%) (Botrytis cinerea; [14])
0.8: Gray Mold Severity (0-4) (Botrytis cinerea; Uninoculated Fruit, painted on Base and Lid, 2.5/2.5 mg, Day 4) | Gray Mold Severity (0-4) (Botrytis cinerea; Uninoculated Fruit, painted on Base, 5 mg, Day 5)
2%: inhibition at 0.017 µg/mL (C. albicans; 0.017 mg/L, read-out: Growth Inhibition (%) C. albicans)
0.3: Gray Mold Severity (0-4) (Botrytis cinerea; [10]) | Gray Mold Severity (0-4) (Botrytis cinerea; [15])
22.2%: inhibition at 0.6 µg/mL (C. albicans; 0.6 mg/L, read-out: Growth Inhibition (%) C. albicans)
2.2 µg/mL: MIC (C. albicans; 120 h, 100% control, 5 days at 28 C, read-out: minimum inhibitory concentration (MIC) for C. albicans)
0.2: Gray Mold Severity (0-4) (Botrytis cinerea; Inoculated Fruit, painted on Base, 5 mg, Day 6) | Gray Mold Severity (0-4) (Botrytis cinerea; Uninoculated Fruit, painted on Base and Lid, 2.5/2.5 mg, Day 3) | Gray Mold Severity (0-4) (Botrytis cinerea; Uninoculated Fruit, painted on Lid, 5 mg, Day 3)
1.2: Gray Mold Severity (0-4) (Botrytis cinerea; Uninoculated Fruit, painted on Base, 5 mg, Day 6) | Gray Mold Severity (0-4) (Botrytis cinerea; Uninoculated Fruit, painted on Lid, 5 mg, Day 4)
2 mg/L: MIC (Epidermophyton floccus) | MIC (Trichophyton rubrum) | MIC [1]
11.9%: inhibition at 0.1 µg/mL (C. albicans; 0.1 mg/L, read-out: Growth Inhibition (%) C. albicans)
7.9%: inhibition at 0.07 µg/mL (C. albicans; 0.07 mg/L, read-out: Growth Inhibition (%) C. albicans)
0.0: Gray Mold Severity (0-4) (Botrytis cinerea; [2]) | Gray Mold Severity (0-4) (Botrytis cinerea; [3]) | Gray Mold Severity (0-4) (Botrytis cinerea; [4]) | Gray Mold Severity (0-4) (Botrytis cinerea; [5]) | Gray Mold Severity (0-4) (Botrytis cinerea; [6]) | Gray Mold Severity (0-4) (Botrytis cinerea; [7]) | Gray Mold Severity (0-4) (Botrytis cinerea; [8]) | Gray Mold Severity (0-4) (Botrytis cinerea; [9]) | Gray Mold Severity (0-4) (Botrytis cinerea; Inoculated Fruit, painted on Base, 5 mg, Day 0) | Gray Mold Severity (0-4) (Botrytis cinerea; Inoculated Fruit, painted on Base, 5 mg, Day 1) | Gray Mold Severity (0-4) (Botrytis cinerea; Inoculated Fruit, painted on Base, 5 mg, Day 4) | Gray Mold Severity (0-4) (Botrytis cinerea; Inoculated Fruit, painted on Base, 5 mg, Day 5) | Gray Mold Severity (0-4) (Botrytis cinerea; Inoculated Fruit, painted on Lid, 5 mg, Day 0) | Gray Mold Severity (0-4) (Botrytis cinerea; Inoculated Fruit, painted on Lid, 5 mg, Day 1) | Gray Mold Severity (0-4) (Botrytis cinerea; Inoculated Fruit, painted on Lid, 5 mg, Day 2) | Gray Mold Severity (0-4) (Botrytis cinerea; Inoculated Fruit, painted on Lid, 5 mg, Day 3) | Gray Mold Severity (0-4) (Botrytis cinerea; Inoculated Fruit, painted on Lid, 5 mg, Day 4) | Gray Mold Severity (0-4) (Botrytis cinerea; Inoculated Fruit, painted on Lid, 5 mg, Day 5) | Gray Mold Severity (0-4) (Botrytis cinerea; Inoculated Fruit, painted on Lid, 5 mg, Day 6) | Gray Mold Severity (0-4) (Botrytis cinerea; Inoculated Fruit, painted on Lid, 5 mg, Day 7) | Gray Mold Severity (0-4) (Botrytis cinerea; Uninoculated Fruit, painted on Base and Lid, 2.5/2.5 mg, Day 0) | Gray Mold Severity (0-4) (Botrytis cinerea; Uninoculated Fruit, painted on Base and Lid, 2.5/2.5 mg, Day 1) | Gray Mold Severity (0-4) (Botrytis cinerea; Uninoculated Fruit, painted on Base and Lid, 2.5/2.5 mg, Day 2) | Gray Mold Severity (0-4) (Botrytis cinerea; [11]) | Gray Mold Severity (0-4) (Botrytis cinerea; [12]) | Gray Mold Severity (0-4) (Botrytis cinerea; [13]) | Gray Mold Severity (0-4) (Botrytis cinerea; [14]) | Gray Mold Severity (0-4) (Botrytis cinerea; Uninoculated Fruit, painted on Lid, 5 mg, Day 0) | Gray Mold Severity (0-4) (Botrytis cinerea; Uninoculated Fruit, painted on Lid, 5 mg, Day 1) | Gray Mold Severity (0-4) (Botrytis cinerea; Uninoculated Fruit, painted on Lid, 5 mg, Day 2)
0.1: Gray Mold Severity (0-4) (Botrytis cinerea; Inoculated Fruit, painted on Base, 5 mg, Day 2) | Gray Mold Severity (0-4) (Botrytis cinerea; Inoculated Fruit, painted on Base, 5 mg, Day 3)
18.8%: Gray Mold Incidence (%) (Botrytis cinerea; [10])
2.2%: Gray Mold Incidence (%) (Botrytis cinerea; [15])
2.0: Gray Mold Severity (0-4) (Botrytis cinerea; Uninoculated Fruit, painted on Lid, 5 mg, Day 5) | Gray Mold Severity (0-4) (Botrytis cinerea; Uninoculated Fruit, painted on Lid, 5 mg, Day 6)
18.5%: inhibition at 0.3 µg/mL (C. albicans; 0.3 mg/L, read-out: Growth Inhibition (%) C. albicans)
